Experimental data: PubChem BioAssay (NCI)
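Growth conditions: 96-well plates. Treatment: test compound, 48 hours, 5 concentrations. Analysis: linear interpolation between bracketing concentrations; unreached endpoints set to highest concentration. Abbreviation: GI50, concentration required for 50% inhibition of growth. At the TGI there is no net growth.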

What was measured:
Test in all cases: DTP human tumour cell line panel, 48 h
[1] = test system: DMS 273 small cell lung
[2] = test system: KM20L2 colon
[3] = test system: LOX IMVI melanoma
[4] = test system: OVCAR-5 ovarian
[5] = test system: RPMI-8226 leukemia
[6] = test system: SR leukemia
[7] = test system: TK-10 renal
[8] = test system: UACC-257 melanoma
[9] = test system: HOP-18 NSCLC
[10] = test system: MDA-MB-435

| Compound | TGI [1] | TGI [2] | TGI [3] | TGI [4] | TGI [5] | TGI [6] | TGI [7] | TGI [8] | TGI [9] | GI50 [3] | GI50 [10] | TGI [10] | GI50 [4] | GI50 [5] | GI50 [6] | GI50 [7] | GI50 [8] | GI50 [2] | GI50 [1] | GI50 [9] |
| --- | --- | --- | --- | --- | --- | --- | --- | --- | --- | --- | --- | --- | --- | --- | --- | --- | --- | --- | --- | --- |
| CCCNC1=C(C(=O)OCC)C(=O)CO1 | > 100 µM | > 100 µM | > 100 µM | > 100 µM | > 100 µM | > 100 µM | > 100 µM | > 100 µM |  |  |  |  |  |  |  |  |  |  |  |  |
| NC1C[C@H](n2cc(/C=C/Br)c(=O)[nH]c2=O)C[C@@H]1CO (some centres not stated) | > 100 µM | > 100 µM | > 100 µM |  | > 100 µM |  | > 100 µM | > 100 µM | > 100 µM |  |  |  |  |  |  |  |  |  |  |  |
| Nc1ccn(CCNCCn2cnc3nc(N)[nH]c(=O)c32)c(=O)n1 |  | > 100 µM | > 100 µM | > 100 µM | > 100 µM | > 100 µM | > 100 µM | > 100 µM | > 100 µM |  |  |  |  |  |  |  |  |  |  |  |
| CCN(CC)c1ccc(C(=O)c2ccccc2C(=O)O)c(O)c1 | > 100 µM |  | > 100 µM | > 100 µM | > 100 µM |  | > 100 µM | > 100 µM |  |  |  |  |  |  |  |  |  |  |  |  |
| COc1cc(OC(C)=O)cc2c(OC(C)=O)ccc(OC(C)=O)c12 |  | > 100 µM | > 100 µM | > 100 µM | > 100 µM | > 100 µM | > 100 µM | > 100 µM |  |  |  |  |  |  |  |  |  |  |  |  |
| COc1ccc(-c2c3c(N)nc(-c4ccncc4)nc3nc3c2c(C)nn3-c2ccccc2)cc1 |  |  | > 100 µM | > 100 µM | > 100 µM | > 100 µM | 14.6 µM | > 100 µM |  | 10.1 µM | 5.29 µM | > 100 µM | 4.03 µM | > 100 µM | 1.53 µM | 3.71 µM | 79.9 µM |  |  |  |
| COC(C(=O)[O][Ge]([CH3])([CH3])[CH3])c1ccccc1 (configuration not stated) |  | > 100 µM | > 100 µM | > 100 µM | > 100 µM | > 100 µM | > 100 µM | > 100 µM |  | > 100 µM |  |  | > 100 µM | > 100 µM | > 100 µM | > 100 µM | > 100 µM | > 100 µM |  |  |
| Cc1[nH]ccc2c1[nH]c1cc(=O)ccc12 | > 100 µM | > 100 µM | > 100 µM | > 100 µM | > 100 µM |  | > 100 µM | > 100 µM | > 100 µM |  |  |  |  |  |  |  |  |  |  |  |
| CCOc1ccc(NC(=O)C(=O)CC(=O)C2=C(C)Nc3ccccc3S2)cc1 |  | > 50 µM | > 50 µM | > 50 µM | > 50 µM |  | > 50 µM | > 50 µM | > 50 µM |  |  |  |  |  |  |  |  |  |  |  |
| COc1cccc(-n2ncc3c(N/N=C/c4ccc(C(=O)NCCN(C)C)cc4)ncnc32)c1 |  |  | 5.62 µM | 8.61 µM | 12.9 µM | > 13.9 µM | 6.8 µM | 7.44 µM |  | 1.28 µM | 1.93 µM | 5.81 µM | 4.53 µM | 6.33 µM | 2.29 µM | 3.4 µM | 3.72 µM |  |  |  |
| CC1SC2=NC3=C(c4ccccc4C3=O)C(c3ccc(F)cc3)N2C1=O (configuration not stated) | > 100 µM | > 100 µM |  | > 100 µM | > 100 µM |  | > 100 µM | > 100 µM |  |  |  |  |  |  |  |  |  |  |  |  |
| CCc1ccccc1NC(=O)C(=O)CC(=O)c1sc(Nc2ccccc2)nc1C | > 100 µM | > 100 µM | > 100 µM | > 100 µM |  | > 100 µM | > 100 µM | > 100 µM | > 100 µM |  |  |  |  |  |  |  |  |  |  |  |
| NNC(=O)/C(=C/c1ccc(Cl)cc1Cl)NC(=O)c1ccccc1 | > 100 µM |  | > 100 µM | > 100 µM | > 100 µM | > 100 µM | > 100 µM | > 100 µM | > 100 µM |  |  |  |  |  |  |  |  |  |  |  |
| Cc1cc(N(CCC#N)CCC#N)ccc1N=Nc1cccc(C(=O)O)c1 | > 100 µM |  | > 100 µM | > 100 µM |  |  | > 100 µM | > 100 µM | > 100 µM |  |  |  |  |  |  |  |  |  |  |  |
| CC1=C(C)C(=O)c2c(cc3ccccn23)C1=O | 32.2 µM |  | 19.1 µM | 92.6 µM | 65.9 µM | 72.5 µM | 55.9 µM |  | 68.2 µM |  |  |  |  |  |  |  |  |  |  |  |
| O=C(CN1CCOCC1)Nc1nc(-c2ccc(Cl)cc2)cs1 | 41.8 µM |  | 58.7 µM | > 100 µM | 53.7 µM |  | > 100 µM |  | > 100 µM |  |  |  |  |  |  |  |  |  |  |  |

| Compound | TGI [1] | TGI [2] | TGI [3] | TGI [4] | TGI [5] | TGI [6] | TGI [7] | TGI [8] | TGI [9] | GI50 [3] | GI50 [10] | TGI [10] | GI50 [4] | GI50 [5] | GI50 [6] | GI50 [7] | GI50 [8] | GI50 [2] | GI50 [1] | GI50 [9] |
| --- | --- | --- | --- | --- | --- | --- | --- | --- | --- | --- | --- | --- | --- | --- | --- | --- | --- | --- | --- | --- |
| C1C[OH+]CC[OH+]CCNCC[OH+]CC[OH+]CCN1.N.[Cl-].[Pt+4] | 15.7 µM | > 100 µM | 28.4 µM |  | 92.7 µM |  | 71.3 µM | 10.9 µM | > 100 µM | 7.66 µM |  |  |  | 10.2 µM |  | 8.31 µM | 3.19 µM | 30.3 µM | 2.87 µM | 19.9 µM |
| COC(=O)[C@@]1(C)CC[C@]2(C)CC[C@]3(C)C4=CC=C5C(=CC(=O)C(O)=C5C)[C@]4(C)[C@@H](O)C[C@@]3(C)[C@@H]2C1 |  |  | 21.3 µM | 24.5 µM | 27.7 µM | 19 µM | 15.7 µM | 24.3 µM |  | 10.4 µM | 10.6 µM | 21.5 µM | 12.9 µM | 5.17 µM | 2.69 µM | 4.77 µM | 10.1 µM |  |  |  |
| CN1CCC(n2cnc(-c3ccc(F)cc3)c2-c2ccnc(NCCO)n2)CC1 |  |  | > 25 µM | > 25 µM | > 25 µM | > 25 µM | > 25 µM | > 25 µM |  | 13.8 µM | 11.5 µM | > 25 µM | > 25 µM | > 25 µM | 23.7 µM | > 20.3 µM | > 25 µM |  |  |  |
| CSc1ccc(C2OC(=O)c3ccccc32)c2ccccc12 (configuration not stated) |  | > 100 µM | > 100 µM | > 100 µM | > 100 µM | > 100 µM |  | > 100 µM | > 100 µM |  |  |  |  |  |  |  |  |  |  |  |
| COc1ccc(/C(C#N)=C/c2ccccc2OC)cc1 |  |  | > 100 µM | > 100 µM | 46.2 µM | 15.1 µM | > 100 µM | > 100 µM |  | 6.6 µM | 1.95 µM | 5.72 µM | 55.4 µM | 9.02 µM | 2.95 µM | 12.4 µM | 12.4 µM |  |  |  |
| CCCCCCCCCCCCCCCCN1CC2CCCCC2C1 (configuration not stated) |  |  | 13.8 µM | 18.8 µM | 4.06 µM | 4.64 µM | 26.1 µM | 27 µM |  | 3.77 µM | 8.57 µM | 24.3 µM | 5.33 µM | 1.97 µM | 2.07 µM | 11.2 µM | 12.6 µM |  |  |  |
| CC1=Nc2ccccc2S/C1=C(/C)NNC(=O)C(N)=O | > 100 µM | > 100 µM | > 100 µM | > 100 µM | > 100 µM |  | > 100 µM | > 100 µM | > 100 µM |  |  |  |  |  |  |  |  |  |  |  |
| CN(C)C(=O)OC(Cn1cncn1)c1ccc(Cl)cc1Cl (configuration not stated) | > 100 µM | > 100 µM | > 100 µM | > 100 µM | > 100 µM |  | > 100 µM | > 100 µM | > 100 µM |  |  |  |  |  |  |  |  |  |  |  |
| CC1=C(Oc2ccccc2)C(CCC(=O)O)c2c(O)cc(Cl)c(O)c21 (configuration not stated) | > 100 µM | > 100 µM | > 100 µM |  | > 100 µM | > 100 µM | > 100 µM | > 100 µM |  |  |  |  |  |  |  |  |  |  |  |  |
| OC(c1cc(-c2ccccc2)nc2ccc(Cl)cc12)C1CCCCN1 (configuration not stated) |  |  | 2.91 µM | 4.3 µM | 5.49 µM | 5.44 µM | 16.2 µM | 4.13 µM |  | 1.55 µM | 1.73 µM | 3.29 µM | 1.84 µM | 2.25 µM | 1.88 µM | 4.06 µM | 2.23 µM |  |  |  |
| CC#C[C@]1(O)CC[C@H]2[C@@H]3CCC4=CC(=O)CCC4=C3[C@@H](c3ccc4c(c3)OCO4)C[C@@]21C |  |  | 253 µM | > 1000 µM | 331 µM | 479 µM | 461 µM | 410 µM |  | 113 µM | 106 µM | 390 µM | 236 µM | 49.4 µM | 77.2 µM | 125 µM | 119 µM |  |  |  |
| O=C(NCCO)Nc1ccc(-c2nc(N3CCOCC3)c3cccn3n2)cc1 |  |  | 35.3 µM | 20.7 µM | > 54.6 µM | > 100 µM | 2.64 µM | 4.29 µM |  | 0.693 µM | 0.188 µM | > 28.1 µM | 0.138 µM | 0.405 µM | 0.232 µM | 0.0935 µM | 0.149 µM |  |  |  |
| COc1ccc(OC)c(NC(=O)C2=C(C)NC(C)=C(C(=O)Nc3cc(OC)ccc3OC)C2c2ccccc2)c1 | > 100 µM | > 100 µM | > 100 µM | > 100 µM | > 100 µM |  | > 100 µM | > 100 µM | > 100 µM |  |  |  |  |  |  |  |  |  |  |  |
| COc1ccc(OC)c(/C=C2\SC(=S)NC2=O)c1 |  |  | > 100 µM | > 100 µM | > 100 µM | > 100 µM | > 100 µM | 61.5 µM |  | 26.6 µM | 39 µM | > 100 µM | 26.7 µM | 36.7 µM | 37.6 µM | 28.8 µM | 19.8 µM |  |  |  |
| O=[N+]([O-])C1C2C=CC(C2)[C@H]1c1ccco1 (some centres not stated) | > 100 µM | > 100 µM | > 100 µM | > 100 µM |  | > 100 µM | > 100 µM | > 100 µM |  |  |  |  |  |  |  |  |  |  |  |  |
| CC1C=C(OC(=O)c2ccccc2)C(=O)C(n2cc(F)c(=O)[nH]c2=O)O1 (configuration not stated) | > 100 µM | > 100 µM |  | > 100 µM | > 100 µM |  | > 100 µM | > 100 µM | > 100 µM |  |  |  |  |  |  |  |  |  |  |  |
